Data set [1] relates to LPA 18:2 level in mouse plasma. In words: In vitro LPA assay, reduction of LPA 18:2 level in mouse plasma (LC-MS/MS). Type of data set: biochemical. Particulars: 2 hr at 37° C., LPA 18:2 reduction. The procedure:
(§1) Autotaxin (ATX) plays an important role in lysophosphatidic acid (LPA) signaling. An in vitro LPA assay was conducted to determine IC50 values of the test compounds on reduction of LPA 18:2 level in rat or mouse plasma. This example describes the assay data (IC50 value ranges) of exemplary compounds from LPA assays using mouse and rat plasma. Compound GPLG-1690 was assayed as a reference compound.
(§2) The 10 mM DMSO stock solutions of test compounds and 4-fold serial dilutions of the test compounds were prepared at various concentrations. The diluted solutions of the compounds were diluted with 1×PBS (pH 7.5) buffer. 38 μL of rat or mouse plasma samples were mixed with 2 μL of the diluted solutions of the compounds or 2% DMSO solutions in 96-well plate (final 0.1% DMSO). After incubating for 2 hr at 37° C., 120 μL MeOH containing IS (250 ng/mL of LPA 17:0) was added to each well. Mixture was vortexed for 1 min, and then centrifuged for 30 min (4000 rpm, 4° C.). 100 μL supernatant was transferred to a 96-well plate containing 100 μL pure water and the plate was shaken for 10 min. 5 μL supernatant was injected into LC-MS/MS system. No calibration curve will be prepared for LPA 18:2 and all quantifications were performed based on peak area ratios (LPA 18:2/LPA 17:0). For each concentration of compound LPA data were expressed as percentage of reduction (% reduction) using the formula. 100−[((LPA ratio-LPA ratio in control sample after 0 hr incubation)/(LPA ratio in control sample after 2 hr incubation—LPA ratio in control sample after 0 hr incubation))*100]. Data

Data set [2] has as its system LPA 18:2 level in rat plasma. In words: In vitro LPA assay, reduction of LPA 18:2 level in rat plasma (LC-MS/MS). Format: biochemical. Conditions: 2 hr at 37° C., LPA 18:2 reduction. The protocol:
as §1, §2

The target of data set [3] is hATX/ENPP2 (Homo sapiens, UniProt Q13822). In words: hATX/ENPP2 biochemical assay using 16:0-LPC as substrate (Amplex Red/choline oxidase/HRP fluorescence). Conditions: hENPP2 2.5 nM, LPC (16:0) substrate. The method, boiled down: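 Enzyme preincubated with compounds 15 min at room temperature in 50 mM Tris-HCl pH 8.0, 140 mM NaCl, 5 mM CaCl2, 0.01% Triton X-100. Reaction started with 80 μM LPC (16:0) stock plus Amplex Red/choline oxidase/HRP mix; fluorescence (ex 530/em 590 nm) read kinetically. IC50 from slope between 60 and 70 min.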

The nature of data set [4]: Mouse PK study (IV and PO). Type of data set: in vivo. Particulars: male, C57BL/6, mouse, plasma, male C57BL/6 mice; for AUC(0-inf): IV 2 mg/kg and PO 10 mg/kg study; for bioavailability / Cmax: po, 10 mg/kg; for bioavailability: IV 2 mg/kg and PO 10 mg/kg, read-out: F % (bioavailability); for Cmax: PO group 10 mg/kg. The procedure: This example describes the pharmacokinetic (PK) data obtained for various compounds of the present disclosure, from studies using mice. The following PK parameters were calculated: • Bioavailability (F %) were calculated using the linear/log trapezoidal rule • Peak plasma concentrations (Cmax (ng/mL)) were taken directly from the plasma concentration vs. time profiles for the PO group • Area under the curve e.g., the area under the concentration curve from time 0 to infinity (AUC0-inf(ng*h/mL)). Experimental Procedures
After intravenous (IV) and oral (PO) administration at 2 mg/kg and 10 mg/kg to male C57BL/6 mice, respectively, the blood samples were collected at the designed sampling time points. All blood samples were transferred into pre-chilled commercial polyethylene microcentrifuge tubes containing K2-EDTA as an anticoagulant. Samples were processed for plasma by centrifugation. Plasma samples was transferred into polypropylene tubes pre-chilled on dry ice and then quickly frozen over dry ice and kept at −70±10° C. until LC-MS/MS analysis. Mice plasma samples were analyzed using qualified bioanalytical methods based on protein precipitation followed by LC-MS/MS analysis. Individual plasma concentration data of each compound was subjected to noncompartmental pharmacokinetic analysis using Phoenix WinNonlin™. Nominal doses were used for pharmacokinetic parameters calculation.

Where a name gives a salt, the structure may show the parent alone.

A word on the IC50: it is the concentration that gives 50% inhibition. `CCc1nc2ccc(-c3cnc(N4CCN(CC(=O)N5CC[C@@H](O)C5)CC4)nc3)cn2c1N(C)c1nc(-c2ccc(F)cc2)c(C#N)s1` [45 (hydrochloride salt), (R)-2-((2-ethyl-6-(2-(4-(2-(3-hydroxypyrrolidin-1-yl)-2-oxoethyl)piperazin-1-yl)pyrimidin-5-yl)imidazo[1,2-a]pyridin-3-yl)(methyl)amino)-4-(4-fluorophenyl)thiazole-5-carbonitrile]: the values for the IC50 in data set [1] and in data set [2] were 0.2 to 0.8 µM and not above 0.2 µM, respectively.
In the same order, the values of `CCc1nc2ccc(-c3cnc(N4CCN(CC(=O)N5CC[C@H](O)C5)CC4)nc3)cn2c1N(C)c1nc(-c2ccc(F)cc2)c(C#N)s1` [46 (hydrochloride salt), (S)-2-((2-ethyl-6-(2-(4-(2-(3-hydroxypyrrolidin-1-yl)-2-oxoethyl)piperazin-1-yl)pyrimidin-5-yl)imidazo[1,2-a]pyridin-3-yl)(methyl)amino)-4-(4-fluorophenyl)thiazole-5-carbonitrile] are 0.2 to 0.8 µM and 0.2 to 0.8 µM.
Consider `CCc1nc2ccc(-c3cnc(N4CCN(C(=O)C5CN(C)C5)CC4)nc3)cn2c1N(C)c1nc(-c2ccc(F)cc2)c(C#N)s1` [79 (hydrochloride salt)], for which the IC50 in data set [1] was 0.2 to 0.8 µM; in data set [3] it was not above 0.02 µM; in data set [2] it was not above 0.2 µM.
The term AUC(0-inf) denotes the area under the concentration-time curve extrapolated to infinity. Low values mean less exposure, high ones more exposure. In general, bioavailability refers to dose-corrected exposure relative to a reference, in per cent. By Cmax is commonly meant the highest concentration seen after dosing. Turning to `CCc1nc2ccc(-c3cnc(N4CCN(C(=O)C5(C#N)CC5)CC4)nc3)cn2c1N(C)c1nc(-c2ccc(F)cc2)c(C#N)s1` [Compound 1, 2-((6-(2-(4-(1-cyanocyclopropane-1-carbonyl)piperazin-1-yl)pyrimidin-5-yl)-2-ethylimidazo[1,2-a]pyridin-3-yl)(methyl)amino)-4-(4-fluorophenyl) thiazole-5-carbonitrile], in data set [4], the AUC(0-inf) is 27200 ng·h/mL, the bioavailability is 56.5% and the concentration peaked (Cmax) at 3030 ng/mL. In addition, in data set [3], the IC50 was not above 0.02 µM.
For `CCc1nc2ccc(-c3cnc(N4CCN(C(=O)C5(O)CC5)CC4)nc3)cn2c1N(C)c1nc(-c2ccc(F)cc2)c(C#N)s1` [Compound 2, 2-((2-ethyl-6-(2-(4-(1-hydroxycyclopropane-1-carbonyl)piperazin-1-yl)pyrimidin-5-yl)imidazo[1,2-a]pyridin-3-yl)(methyl)amino)-4-(4-fluorophenyl)thiazole-5-carbonitrile] the same measures were 35100 ng·h/mL, 61%, 4070 ng/mL and not above 0.02 µM.
With `CCc1nc2ccc(-c3cnc(N4CCN(C(=O)N5CCCC5)CC4)nc3)cn2c1N(C)c1nc(-c2ccc(F)cc2)c(C#N)s1` [Compound 42, 2-((2-ethyl-6-(2-(4-(pyrrolidine-1-carbonyl)piperazin-1-yl)pyrimidin-5-yl)imidazo[1,2-a]pyridin-3-yl)(methyl)amino)-4-(4-fluorophenyl)thiazole-5-carbonitrile], the IC50 in data set [1] is 0.2 to 0.8 µM; in data set [3], not above 0.02 µM; in data set [2] it was 0.2 to 0.8 µM.
As to `CCc1nc2ccc(-c3cnc(C(=O)N4CCCC4)nc3)cn2c1N(C)c1nc(-c2ccc(F)cc2)c(C#N)s1` [Compound 47, 2-((2-ethyl-6-(2-(pyrrolidine-1-carbonyl)pyrimidin-5-yl)imidazo[1,2-a]pyridin-3-yl)(methyl)amino)-4-(4-fluorophenyl)thiazole-5-carbonitrile], in data set [4], the AUC(0-inf) was 42300 ng·h/mL, the bioavailability came to 62.3% and the concentration peaked (Cmax) at 4760 ng/mL. The compound further showed an IC50 in data set [3] of 0.02 to 0.2 µM.
With `CCc1nc2ccc(-c3ccc(N4CCN(C(=O)N5CCCC5)CC4)nc3)cn2c1N(C)c1nc(-c2ccc(F)cc2)c(C#N)s1` [Compound 85, 2-((2-ethyl-6-(6-(4-(pyrrolidine-1-carbonyl)piperazin-1-yl)pyridin-3-yl)imidazo[1,2-a]pyridin-3-yl)(methyl)amino)-4-(4-fluorophenyl) thiazole-5-carbonitrile], the values for the IC50 in data set [1], in data set [3] and in data set [2] were 0.2 to 0.8 µM, 0.02 to 0.2 µM and not above 0.2 µM, respectively.
As to `CCc1nc2ccc(-c3ccc(N4CCN(C(=O)C5CN(C)C5)CC4)nc3)cn2c1N(C)c1nc(-c2ccc(F)cc2)c(C#N)s1` [Compound 86 hydrochloride, 2-((2-ethyl-6-(6-(4-(1-methylazetidine-3-carbonyl)piperazin-1-yl)pyridin-3-yl)imidazo[1,2-a]pyridin-3-yl)(methyl)amino)-4-(4-fluorophenyl)thiazole-5-carbonitrile hydrochloride], the 50% inhibitory concentration (IC50) in data set [1] is more than 0.8 µM; in data set [2] it was 0.2 to 0.8 µM.
As to `CCc1nc2ccc(-c3ccc(C(=O)N4CCCC4)nc3)cn2c1N(C)c1nc(-c2ccc(F)cc2)c(C#N)s1` [Compound 87, 2-((2-ethyl-6-(6-(pyrrolidine-1-carbonyl)pyridin-3-yl)imidazo[1,2-a]pyridin-3-yl)(methyl)amino)-4-(4-fluorophenyl)thiazole-5-carbonitrile], the IC50 in data set [1] fell in the range of 0.2 to 0.8 µM; in data set [3] it was 0.02 to 0.2 µM; in data set [2] it was 0.2 to 0.8 µM.
Turning to `CCc1nc2ccc(-c3ccc(N4CCN(C(=O)C5(CO)CC5)CC4)nc3)cn2c1N(C)c1nc(-c2ccc(F)cc2)c(C#N)s1` [Compound 93, 2-((2-ethyl-6-(6-(4-(1-(hydroxylmethyl)cyclopropane-1-carbonyl)piperazin-1-yl)pyridin-3-yl)imidazo[1,2-a]pyridin-3-yl) (methyl)amino)-4-(4-fluorophenyl)thiazole-5-carbonitrile], the IC50 in data set [1] is 0.2 to 0.8 µM; in data set [3] it was not above 0.02 µM; in data set [2], not above 0.2 µM.
In the same order, the values of `CCc1nc2ccc(-c3ccc(N4CC(NC5(CO)CC5)C4)nc3)cn2c1N(C)c1nc(-c2ccc(F)cc2)c(C#N)s1` [Compound 109, 2-((2-ethyl-6-(6-(3-((1-(hydroxymethyl)cyclopropyl)amino)azetidin-1-yl)pyridin-3-yl)imidazo[1,2-a]pyridin-3-yl)(methyl)amino)-4-(4-fluorophenyl)thiazole-5-carbonitrile] are 0.2 to 0.8 µM, 0.02 to 0.2 µM and not above 0.2 µM.
With `CCc1nc2ccc(-c3ccc(N4CCC(C(=O)N5CCNCC5)CC4)nc3)cn2c1N(C)c1nc(-c2ccc(F)cc2)c(C#N)s1` [Compound 118, 2-((2-ethyl-6-(6-(4-(piperazine-1-carbonyl)piperidin-1-yl)pyridin-3-yl)imidazo[1,2-a]pyridin-3-yl) (methyl)amino)-4-(4-fluorophenyl)thiazole-5-carbonitrile], the IC50 in data set [1] is 0.2 to 0.8 µM; in data set [3], not above 0.02 µM; in data set [2] it was not above 0.2 µM.
On to `CCc1nc2ccc(-c3ccc(N4CCC(C(=O)N5CCC5)CC4)nc3)cn2c1N(C)c1nc(-c2ccc(F)cc2)c(C#N)s1` [Compound 122, 2-((6-(6-(4-(azetidine-1-carbonyl)piperidin-1-yl)pyridin-3-yl)-2-ethylimidazo[1,2-a]pyridin-3-yl)(methyl)amino)-4-(4-fluorophenyl)thiazole-5-carbonitrile], for which, in data set [4], the AUC(0-inf) was found to be 47700 ng·h/mL, the bioavailability came to 57.8% and the Cmax amounted to 7000 ng/mL. The compound also returned an IC50 in data set [3] not above 0.02 µM.
Regarding `CCc1nc2c(C)cc(N3CCN(CC(=O)N4CC(O)C4)CC3)cn2c1N(C)c1nc(-c2ccc(F)cc2)c(C#N)s1` [GPLG-1690, Ziritaxestat, reference compound], the IC50 in data set [1] and in data set [2] was more than 0.8 µM each time.

These data come from patent US11970493B2, “Autotaxin inhibitor compounds” (ILDONG PHARMACEUTICAL CO., LTD., priority 2020, dated 2024).
